In patent publication US20250161288A1, “MULTIMERIZER PHARMACEUTICAL COMPOSITIONS” (PONCE THERAPEUTICS, INC., priority 2022, published 2025):

Legend:
[1] = assay type: physicochemical
Text: As such, rimiducid is categorized as a biopharmaceutical classification system (BCS) class IV drug. Although there are exceptions, BCS class IV compounds generally are viewed as poor candidates for oral delivery (Markovic et al., Pharmaceutics 2020, 12(12), 1175. doi.org/10.3390/pharmaceutics12121175). For a compound to be absorbed, it must first be in solution. […] Once solubilized, rimiducid must cross the plasma membranes of the intestinal tract to be absorbed. […] Because of the molecular weight of 1411.6 Da, passive absorption of rimiducid through the intestinal aqueous porin channels is unlikely (Dahlgren et al., Pharmaceutics. 2019; 11(8):411. Published 2019 Aug. 13. doi:10.3390/pharmaceutics11080411).

[2] = Drug Bank Online; cited from earlier work
[3] = class IV characterisation, aqueous solubility; cited from earlier work

CC[C@H](C(=O)N1CCCC[C@H]1C(=O)O[C@H](CCc1ccc(OC)c(OC)c1)c1cccc(OCC(=O)NCCNC(=O)COc2cccc([C@@H](CCc3ccc(OC)c(OC)c3)OC(=O)[C@@H]3CCCCN3C(=O)[C@@H](CC)c3cc(OC)c(OC)c(OC)c3)c2)c1)c1cc(OC)c(OC)c(OC)c1 [Rimiducid, rimiducid]
theoretical maximal solubility of rimiducid within the upper GI tract [1]: less than 250 μg
water solubility [2]: less than 0.5 μg/mL
volume required to dissolve an effective dose [3]: greater than 250 milliliters
